Legend:
[1] = test system: ERK phosphorylation (pERK) induced by KRAS G12D mutation; assay: Inhibitory activity against ERK phosphorylation (pERK) induced by KRAS G12D mutation, immunofluorescence assay in AsPC-1 cells; type: cell-based; details: Homo sapiens, ASPC1, 3 h drug treatment, pERK (Thr202/Tyr204) signal normalized to DAPI
Description: Test Example 2: Measurement of Inhibitory Activity Against ERK Phosphorylation (pERK) Induced by KRAS G12D Mutation (Immunofluorescence Assay)
Immunofluorescence is a method used to detect specific substances within cells or tissues through antigen-antibody interactions, and allows for the identification of the presence or absence of specific proteins by using antibodies labeled with various fluorescent dyes. After a primary antibody that recognizes a specific protein selectively binds to the epitope, a fluorescent antibody (secondary antibody) is bound to the primary antibody.
It was confirmed as follows that the compounds according to an embodiment of the present application inhibit phosphorylation of extracellular signal-regulated kinases (Phospho-ERK, pERK) induced by KRAS G12D mutation.
AsPC-1 cells were seeded at a density of 10,000 cells/well in RPMI-1640 medium containing 10% FBS and 1% Penicillin-Streptomycin in 384-well plates (Perkinelmer, #6057300) and allowed to attach for 16 h. After the cells attached to the plate, the cells were treated with drugs at a maximum concentration of 10 μM with a 3-fold serial dilution. After 3 h of drug treatment, the medium was removed and the cells were treated with 50 μL of 4% formaldehyde (Biosesang, #PC2031-050-00) for 20 min and washed three times with 50 μL of phosphate buffered saline (PBS).
50 μL of PBS containing 0.3% Triton X-100 (Sigma, #T8787-250 mL) was added and reacted for 20 minutes to allow antibody penetration into cells, and then the plate was washed three times with 50 μL of PBS. To block nonspecific binding of antibodies to the plate, 50 μL of PBS containing 2% BSA (sigma, #A7906-500G) and 0.01% Tween-20 (Sigma, #P1379-500 mL) (hereinafter referred to as PBS-T) was added, and reacted at room temperature for 2 hours.
To detect pERK, the primary antibody (cell signaling, #9101) was diluted 1:500 in PBS-T containing 2% BSA, 50 μL was added, and the plate was stored in a refrigerator at 4° C. for 16 hours to react, followed by washing three times with 50 μL of PBS-T. To visualize the primary antibody, the secondary antibody, i.e., anti-rabbit-Alexa Fluor 488 (ThermoFisher, #A11008), was diluted 1:1000 in PBS-T containing 2% BSA, 50 μL was added, and after reaction at room temperature for 1 hour, the plate was washed three times with 50 μL of PBS-T. Next, to visualize the nuclei of cells, DAPI (Thermofisher, #62248, 1 mg/mL) was diluted 1:1000 in PBS-T, 50 μL each was added, reacted at room temperature for 10 minutes, and washed three times with 50 μL of PBS-T. 50 μL of PBS-T was added to each well, and the plate was read for fluorescence value using HCS equipment (MOLECULAR DEVICES/ImageXpress Micro).
Data analysis was performed by normalizing the pERK (Thr202/Tyr204) signal to the DAPI signal and calculating the percentage relative to the DMSO as a control. The IC50 value was determined by fitting a four-parameter dose-response curve using the GraphPad Prism software (version 8.4.3), and interpolating the concentration at which 50% inhibition occurred. The results of calculating the inhibitory efficacy of the compounds according to one embodiment of the present application against KRAS G12D mutation-induced pERK activity are shown in Table 3.

[2] = test system: KRAS G12D mutant pancreatic cancer cell line AsPC-1; assay: Cell viability assay using KRAS G12D mutant cells (AsPC-1, 3D culture, celltiter-glo 3D); type: cell-based; details: Homo sapiens, ASPC1, 5th day after compound treatment
Description: Test Example 3: Cell Viability Assay Using KRAS G12D Mutant Cells
The KRAS G12D mutant pancreatic cancer cell line AsPC-1 was obtained from the Korean Cell Line Bank (KCLB) and maintained in 100-mm dishes or T75 (75 cm^2) flasks using RPM11640+10% fetal bovine serum (FBS)+1% Penicillin-Streptomycin medium. The cells were cultured at 37° C. with 5% CO2. The number of viable cells was counted using Countess (Invitrogen).
When AsPC-1 cells reached 85-100% confluence in the flask, the cells were harvested using 1× trypsin/EDTA solution, and seeded into a 96-well plate for 3D culture at 1000 cells/100 μL/well. The next day, the compounds were diluted ⅕ with DMSO from 10 μM or 50 μM to 0.0001 μM or 0.0006 μM and treated 1:1 (v/v) in the plate where the cells were seeded.
Cell culture was terminated on the 5th day after compound treatment, and cell viability at each concentration was measured using the celltiter-glo 3D cell viability assay kit.
Cell viability assays were normalized to 100% for the DMSO-treated group and expressed as a percentage of the number of viable cells when treated with the compound.
Cell viability %=(average RLU of group treated with test substance−average RLU of untreated group)/(average RLU of group treated with DMSO−average RLU of untreated group)×100
The data were modeled using GraphPad Prism 9 (GraphPad Software) by applying a nonlinear regression curve fit with a four-parameter sigmoidal dose-response curve to determine cell viability as a function of compound concentration. The 50% inhibitory concentration (IC50) corresponds to the concentration at which the curve intersects the midpoint of cell viability. The results of the inhibitory effect of the compounds according to one embodiment of the present application on the viability of KRAS G12D mutant cells are presented in Table 4.

[3] = target: T1, GppNHp-KRAS G12D mutant protein (Homo sapiens, UniProt P01116, G12D); assay: Differential scanning fluorimetry (DSF) binding affinity to GppNHp-KRAS G12D mutant protein; details: DSF thermal shift, 10 μM compound, 4 μg KRAS protein, 50 mM HEPES (pH 7.5)
T1 construct: purchased Daegu Gyeongbuk Medical Innovation Foundation (DGMIF), made to order
In short: (§1)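 Thermal shift ΔTm was measured at 10 μM compound over a 25–99 °C ramp (0.05 °C/s), read at 580 nm ex/623 nm em with SYPRO Orange (2×). The protein (4 μg) was preincubated with compound for 30 min at room temperature, in 50 mM HEPES pH 7.5 for GppNHp-KRAS G12D or in kit buffer for GDP-KRAS G12D.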

[4] = target: T2, GDP-KRAS G12D mutant protein (Homo sapiens, UniProt P01116, G12D); assay: Differential scanning fluorimetry (DSF) binding affinity to GDP-KRAS G12D mutant protein; details: DSF thermal shift, 10 μM compound, 4 μg KRAS protein
T2 construct: purchased Daegu Gyeongbuk Medical Innovation Foundation (DGMIF), made to order
In short: as §1

Structure (SMILES)	IC50 [1]	IC50 [2]	GppNHp-KRAS G12D (ΔTmD, ° C.) [3]	GDP-KRAS G12D (ΔTmD, ° C.) [4]
CCc1c(F)ccc2cc(O)cc(-c3c(F)c4nc(OC[C@@]56CCCN5C[C@H](F)C6)nc(N5C[C@H]6CC[C@@H](C5)N6)c4c4cc(C)oc34)c12 [Example 45, 4-(1-((1R,5S)-3,8-diazabicyclo[3.2.1]octan-3-yl)-5-fluoro-3-(((2R,7aS)-2-fluorotetrahydro-1H-pyrrolizin-7a(5H)-yl)methoxy)-8-methylfuro[3,2-n]quinazolin-6-yl)-5-ethyl-6-fluoronaphthalen-2-ol]	70 nM	37 nM	–	–
Cc1cc2c(o1)c(-c1cc(O)cc3ccc(F)c(F)c13)c(F)c1nc(OC[C@@]34CCCN3C[C@H](F)C4)nc(N3C[C@H]4CC[C@@H](C3)N4)c12 [Example 46, 4-(1-((1R,5S)-3,8-diazabicyclo[3.2.1]octan-3-yl)-5-fluoro-3-(((2R,7aS)-2-fluorotetrahydro-1H-pyrrolizin-7a(5H)-yl)methoxy)-8-methylfuro[3,2-n]quinazolin-6-yl)-5,6-difluoronaphthalen-2-ol]	45 nM	25 nM	–	–
C#Cc1c(F)ccc2cc(O)cc(-c3c(F)c4nc(OC[C@@]56CCCN5C[C@H](F)C6)nc(NCC5(N(C)C)CCC5)c4c4cc(C)oc34)c12 [Example 48, 4-(1-(((1-(dimethylamino)cyclobutyl)methyl)amino)-5-fluoro-3-(((2R,7aS)-2-fluorotetrahydro-1H-pyrrolizin-7a(5H)-yl)methoxy)-8-methylfuro[3,2-n]quinazolin-6-yl)-5-ethynyl-6-fluoronaphthalen-2-ol]	333 nM	136 nM	–	–
Cn1cc2c(n1)c(-c1cc(O)cc3ccc(F)c(F)c13)cc1nc(OC[C@@]34CCCN3C[C@H](F)C4)nc(N3C[C@H]4CC[C@@H](C3)N4)c12 [Example 70, 4-(9-((1R,5S)-3,8-diazabicyclo[3.2.1]octan-3-yl)-7-(((2R,7aS)-2-fluorotetrahydro-1H-pyrrolizin-7a(5H)-yl)methoxy)-2-methyl-2H-pyrazolo[4,3-f]quinazolin-4-yl)-5,6-difluoronaphthalen-2-ol]	735 nM	–	3.38 °C	6.34 °C
C#Cc1c(F)ccc2cc(N)cc(-c3cc4nc(OC[C@@]56CCCN5C[C@H](F)C6)nc(N5C[C@H]6CC[C@@H](C5)N6)c4c4cn(C)nc34)c12 [Example 71, 4-(9-((1R,5S)-3,8-diazabicyclo[3.2.1]octan-3-yl)-7-(((2R,7aS)-2-fluorotetrahydro-1H-pyrrolizin-7a(5H)-yl)methoxy)-2-methyl-2H-pyrazolo[4,3-f]quinazolin-4-yl)-5-ethynyl-6-fluoronaphthalen-2-amine]	512 nM	–	4.88 °C	8.14 °C
CCc1c(F)ccc2cc(O)cc(-c3cc4nc(OC[C@@]56CCCN5C[C@H](F)C6)nc(N5C[C@H]6CC[C@@H](C5)N6)c4c4cn(C)nc34)c12 [Example 83, 4-(9-((1R,5S)-3,8-diazabicyclo[3.2.1]octan-3-yl)-7-(((2R,7aS)-2-fluorotetrahydro-1H-pyrrolizin-7a(5H)-yl)methoxy)-2-methyl-2H-pyrazolo[4,3-f]quinazolin-4-yl)-5-ethyl-6-fluoronaphthalen-2-ol]	100 nM	–	5.76 °C	10.06 °C
CCc1c(F)ccc2cc(O)cc(-c3c(F)c4nc(OC[C@@]56CCCN5CC(=C(F)F)C6)nc(N5C[C@H]6CC[C@@H](C5)N6)c4c4cn(C)nc34)c12 [Example 97, 4-(9-((1R,5S)-3,8-diazabicyclo[3.2.1]octan-3-yl)-7-(((S)-2-(difluoromethylene)tetrahydro-1H-pyrrolizin-7a(5H)-yl)methoxy)-5-fluoro-2-methyl-2H-pyrazolo[4,3-f]quinazolin-4-yl)-5-ethyl-6-fluoronaphthalen-2-ol]	–	7 nM	8.42 °C	14.20 °C
C#Cc1c(F)ccc2cc(O)cc(-c3c(F)c4nc(OCC5(CN6CC[C@@H](F)C6)CCC5)nc(N5C[C@H]6CC[C@@H](C5)N6)c4c4cn(C)nc34)c12 [Example 98, 4-(9-((1R,5S)-3,8-diazabicyclo[3.2.1]octan-3-yl)-5-fluoro-7-((1-(((R)-3-fluoropyrrolidin-1-yl)methyl)cyclobutyl)methoxy)-2-methyl-2H-pyrazolo[4,3-f]quinazolin-4-yl)-5-ethynyl-6-fluoronaphthalen-2-ol]	–	110 nM	5.79 °C	11.43 °C
C#Cc1c(F)ccc2cc(N)cc(-c3c(F)c4nc(OC[C@@]56CCCN5CC(=C(F)F)C6)nc(N5C[C@H]6CC[C@@H](C5)N6)c4c4cn(C)nc34)c12 [Example 99, 4-(9-((1R,5S)-3,8-diazabicyclo[3.2.1]octan-3-yl)-7-(((S)-2-(difluoromethylene)tetrahydro-1H-pyrrolizin-7a(5H)-yl)methoxy)-5-fluoro-2-methyl-2H-pyrazolo[4,3-f]quinazolin-4-yl)-5-ethynyl-6-fluoronaphthalen-2-amine]	–	27 nM	7.27 °C	11.13 °C
C#Cc1c(F)ccc2cc(O)cc(-c3c(F)c4nc(OC[C@]56CC(=C)CN5C[C@@H](F)C6)nc(N5C[C@H]6CC[C@@H](C5)N6)c4c4cn(C)nc34)c12 [Example 100, 4-(9-((1 R,5S)-3,8-diazabicyclo[3.2.1]octan-3-yl)-5-fluoro-7-(((2S,7aR)-2-fluoro-6-methylenetetrahydro-1H-pyrrolizin-7a(5H)-yl)methoxy)-2-methyl-2H-pyrazolo[4,3-n]quinazolin-4-yl)-5-ethynyl-6-fluoronaphthalen-2-ol]	–	29 nM	8.92 °C	14.50 °C
